Data from patent US4272437A, “Antibacterial agents, and 4-thio azetidinone intermediates” (priority 1979, dated 1981).
Converted amounts (≈) assume the structure as drawn.

Key:
[1] = system: Gram-negative and Gram-positive organisms; details: literature; cited from earlier work
β-lactamases = details: literature; cited from earlier work
Str. pneumoniae A-9585 = assay: MIC, tube dilution, Streptococcus pneumoniae A9585; assay type: cell-based; details: overnight 37° C., Nutrient Broth
Source text: (§1) Representative compounds of the present invention were subjected to in vitro antibiotic screening against a variety of microorganisms.

Str. pyogenes A-9604 = assay: MIC, tube dilution, Streptococcus pyogenes A9604; assay type: cell-based; details: overnight 37° C., Nutrient Broth
Source text: as §1

Staph. aureus A-9537 = assay: MIC, tube dilution, Staphylococcus aureus A9537; assay type: cell-based; details: overnight 37° C., Nutrient Broth
Source text: as §1

[2] = system: Staph. aureus A-9537 and 50% serum; assay: MIC, tube dilution, Staph. aureus A9537 + 50% serum; assay type: cell-based, Staphylococcus aureus; details: overnight 37° C.
Source text: as §1

[3] = system: Staph. aureus (Pen-Res) A-9606; assay: MIC, tube dilution, Staphylococcus aureus A9606 (Pen-Res); assay type: cell-based; details: Staphylococcus aureus, Staph. aureus A9606 (Pen-Res); overnight 37° C.; read-out: Minimum Inhibitory Concentration (M.I.C.)
Source text: as §1

[4] = system: Staph. aureus (Meth-Res) A-15097; assay: MIC, tube dilution, Staphylococcus aureus A15097 (Meth-Res); assay type: cell-based; details: Staphylococcus aureus, Staph. aureus A15097 (Meth-Res); overnight 37° C.; read-out: Minimum Inhibitory Concentration (M.I.C.)
Source text: as §1

Str. faecalis A-20688 = assay: MIC, tube dilution, Streptococcus faecalis A20688; assay type: cell-based; details: overnight 37° C.
Source text: as §1

E. coli A-15119 = assay: MIC, tube dilution, Escherichia coli A15119; assay type: cell-based; details: Escherichia coli, A15119, E. coli A15119; overnight 37° C.; read-out: Minimum Inhibitory Concentration (M.I.C.)
Source text: as §1

E. coli A-20341-1 = assay: MIC, tube dilution, Escherichia coli A20341-1; assay type: cell-based; details: Escherichia coli, A203411, E. coli A20341-1; overnight 37° C.; read-out: Minimum Inhibitory Concentration (M.I.C.)
Source text: as §1

K. pneumoniae A-15130 = assay: MIC, tube dilution, Klebsiella pneumoniae A15130; assay type: cell-based; details: Klebsiella pneumoniae, A15130, K. pneumoniae A15130; overnight 37° C.; read-out: Minimum Inhibitory Concentration (M.I.C.)
Source text: as §1

[5] = system: Klebsiella species A20468; assay: MIC, tube dilution, Klebsiella species A20468; assay type: cell-based; details: Klebsiella species (K. pneumoniae) A20468; overnight 37° C.; read-out: Minimum Inhibitory Concentration (M.I.C.)
Source text: as §1

Pr. mirabilis A-9900 = assay: MIC, tube dilution, Proteus mirabilis A9900; assay type: cell-based; details: overnight 37° C.
Source text: as §1

Pr. morganii A-15153 = assay: MIC, tube dilution, Proteus morganii A15153; assay type: cell-based; details: overnight 37° C.
Source text: as §1

Ser. marcescens A-20019 = assay: MIC, tube dilution, Serratia marcescens A20019; assay type: cell-based; details: overnight 37° C.
Source text: as §1

Ent. cloacae A-9659 = assay: MIC, tube dilution, Enterobacter cloacae A9659; assay type: cell-based; details: overnight 37° C.
Source text: as §1

Ent. cloacae A-9656 = assay: MIC, tube dilution, Enterobacter cloacae A9656; assay type: cell-based; details: overnight 37° C.
Source text: as §1

Ps. aeruginosa A-9843A = assay: MIC, tube dilution, Pseudomonas aeruginosa A9843A; assay type: cell-based; details: Pseudomonas aeruginosa, A9843A, read-out: Minimum Inhibitory Concentration (M.I.C.), Pseudomonas aeruginosa A9843A; overnight 37° C.
Source text: as §1

Ps. aeruginosa A-21213 = assay: MIC, tube dilution, Pseudomonas aeruginosa A21213; assay type: cell-based; details: Pseudomonas aeruginosa, A21213, Pseudomonas aeruginosa A21213; overnight 37° C.; read-out: Minimum Inhibitory Concentration (M.I.C.)
Source text: as §1

Proteus rettgeri A21203 = assay: MIC, tube dilution, Proteus rettgeri A21203; assay type: cell-based; details: overnight 37° C.
Source text: as §1

Proteus vulgaris A21559 = assay: MIC, tube dilution, Proteus vulgaris A21559; assay type: cell-based; details: Proteus vulgaris A21559; overnight 37° C.
Source text: as §1

E. coli A15119 = assay: In vivo protection of mice, lethal infection with E. coli A15119; details: Escherichia coli, IM, 2 treatments, 7.8 × 10^5 organisms, read-out: PD50
Procedure: (§2) Representative compounds of the present invention were also tested in vivo in mice and their PD50 (dose of compound in mg/kg required to protect 50% of the treated mice against an otherwise lethal infection of a micro-organism) values determined with respect to the test organisms shown below.

S. aureus A9537 = assay: In vivo protection of mice, lethal infection with S. aureus A9537; details: IM, 2 treatments, 9.1 × 10^5 organisms; listed as Ex. 98 (isomer A)
Procedure: as §2

[6] = system: Hemophilus influenzae A9833; assay: MIC, tube dilution, Hemophilus influenzae A9833; assay type: cell-based; details: Haemophilus influenzae; Hemophilus influenzae A9833; overnight 37° C.; read-out: Minimum Inhibitory Concentration (M.I.C.)
Source text: as §1

In the case of `CC(=O)NC=C[S+]([O-])C1=C(C(=O)O)N2C(=O)C(C(C)OS(=O)(=O)O)C2C1` (stereo not drawn), the antibacterial activity [1] is given as “some antibacterial activity” and the β-lactamase inhibition (β-lactamases) is given as “β-lactamase inhibitor”.
In the case of `COC(=O)C1=C(C)OC2C(NC(c3ccccc3)(c3ccccc3)c3ccccc3)C(=O)N12` (stereo not drawn), the β-lactamase inhibition (β-lactamases) is given as “weak inhibitor of β-lactamases”.
In the case of `NC1CCC(C2=C(C(=O)O)N3C(=O)C[C@H]3S2)C1` (single isomer, unassigned) [98 isomer A, 2-(3-Aminocyclopentyl)-penem-3-carboxylic acid], the “Minimum Inhibitory Concentration (M.I.C.)” value (Str. pneumoniae A-9585; Str. pneumoniae A9585) is reported as “.004 µg/mL”, the “Minimum Inhibitory Concentration (M.I.C.)” value (Str. pyogenes A-9604; Str. pyogenes A9604) is reported as “.004 µg/mL” and the “Minimum Inhibitory Concentration (M.I.C.)” value (Staph. aureus A-9537; Staph. aureus A9537) is reported as “.03 µg/mL”. For the same molecule, the “Minimum Inhibitory Concentration (M.I.C.)” value [2] was “.13 µg/mL”, the MIC [3] was 32 µg/mL (≈ 126 µM) and the MIC [4] was > 63 µg/mL. For the same molecule, the “Minimum Inhibitory Concentration (M.I.C.)” value (Str. faecalis A-20688; Str. faecalis A20688) was 4 µg/mL, the MIC (E. coli A-15119) was 1 µg/mL (≈ 3.93 µM) and the MIC (E. coli A-20341-1) was 16 µg/mL (≈ 62.9 µM). The MIC (K. pneumoniae A-15130) was 4 µg/mL (≈ 15.7 µM), the MIC [5] was > 63 µg/mL and the “Minimum Inhibitory Concentration (M.I.C.)” value (Pr. mirabilis A-9900; Proteus mirabilis A9900) was 1 µg/mL. The “Minimum Inhibitory Concentration (M.I.C.)” value (Pr. morganii A-15153; Proteus morganii A15153) was 4 µg/mL, the “Minimum Inhibitory Concentration (M.I.C.)” value (Ser. marcescens A-20019; Serratia marcescens A20019) was 2 µg/mL and the “Minimum Inhibitory Concentration (M.I.C.)” value (Ent. cloacae A-9659; Enterobacter cloacae A9659) was 4 µg/mL. For the same molecule, the “Minimum Inhibitory Concentration (M.I.C.)” value (Ent. cloacae A-9656; Enterobacter cloacae A9656) was 2 µg/mL, the MIC (Ps. aeruginosa A-9843A) was > 63 µg/mL and the MIC (Ps. aeruginosa A-21213) was > 63 µg/mL. The “Minimum Inhibitory Concentration (M.I.C.)” value (Proteus rettgeri A21203; Proteus rettgeri A21203) was 1 µg/mL, the “Minimum Inhibitory Concentration (M.I.C.)” value (Proteus vulgaris A21559) was 2 µg/mL and the ED50 (E. coli A15119) was 17.4 mg/kg. The PD50 (S. aureus A9537) was 0.04 mg/kg/treatment.
`CC(=O)NCCC1=C(C(=O)O)N2C(=O)CC2S1` (stereo not drawn) [Example 25, Sodium 2-(2'-Acetamido-1'-ethyl)penem-3-carboxylate] gave an MIC (Str. pneumoniae A-9585; Streptococcus pneumoniae, A9585, Str. pneumoniae A9585, read-out: Minimum Inhibitory Concentration (M.I.C.)) of 0.25 µg/mL, an MIC (Str. pyogenes A-9604; Streptococcus pyogenes, A9604, Str. pyogenes A9604, read-out: Minimum Inhibitory Concentration (M.I.C.)) of 0.25 µg/mL and an MIC (Staph. aureus A-9537; Staphylococcus aureus, A9537, Staph. aureus A9537, read-out: Minimum Inhibitory Concentration (M.I.C.)) of 0.5 µg/mL. The MIC ([2]; Staphylococcus aureus, read-out: Minimum Inhibitory Concentration (M.I.C.)) was 8 µg/mL, the MIC [3] was 1 µg/mL and the MIC [4] was 125 µg/mL. For the same molecule, the MIC (Str. faecalis A-20688; Enterococcus faecalis, A20688, Str. faecalis A20688, read-out: Minimum Inhibitory Concentration (M.I.C.)) was 63 µg/mL, the MIC (E. coli A-15119) was 4 µg/mL and the MIC (E. coli A-20341-1) was 63 µg/mL. For the same molecule, the MIC (K. pneumoniae A-15130) was 16 µg/mL, the MIC [5] was > 125 µg/mL and the MIC (Pr. mirabilis A-9900; Proteus mirabilis, A9900, Proteus mirabilis A9900, read-out: Minimum Inhibitory Concentration (M.I.C.)) was 4 µg/mL. The MIC (Pr. morganii A-15153; Morganella morganii, A15153, Proteus morganii A15153, read-out: Minimum Inhibitory Concentration (M.I.C.)) was 4 µg/mL, the MIC (Ser. marcescens A-20019; Serratia marcescens, A20019, Serratia marcescens A20019, read-out: Minimum Inhibitory Concentration (M.I.C.)) was 4 µg/mL and the MIC (Ent. cloacae A-9659; Enterobacter cloacae, A9659, Enterobacter cloacae A9659, read-out: Minimum Inhibitory Concentration (M.I.C.)) was 4 µg/mL. For the same molecule, the MIC (Ent. cloacae A-9656; Enterobacter cloacae, A9656, Enterobacter cloacae A9656, read-out: Minimum Inhibitory Concentration (M.I.C.)) was 8 µg/mL, the MIC (Ps. aeruginosa A-9843A) was 16 µg/mL and the MIC (Ps. aeruginosa A-21213) was > 125 µg/mL. The MIC (Proteus rettgeri A21203; Providencia rettgeri, A21203, Proteus rettgeri A21203, read-out: Minimum Inhibitory Concentration (M.I.C.)) was 8 µg/mL and the MIC [6] was > 125 µg/mL.
